Among the test systems are A498; A549; BT-549; CCRF-CEM; EKVX; HCT-116; HCT-15; HT-29; Hs-578T; LOX IMVI; M14; MCF7; OVCAR-3; OVCAR-4; OVCAR-5; RPMI-8226; SF-268; SF-295; SK-MEL-5; SR.
Holding throughout (assay): DTP human tumour cell line panel, 48 h

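Where inhibition never reached the appropriate level, the endpoint shown equals the highest concentration tested. Otherwise, values were interpolated linearly from a five-concentration, 48-hour dose response in 96-well plates. The concentration for 50% growth inhibition is given as GI50.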 The source made the active and inactive calls. Rule as the data show it: active = GI50 up to about 1.1 µM and inactive = higher.

With `COC(=O)C(NC(=O)CNC(=O)CSc1nnc(COc2ccc(Cl)cc2)n1-c1ccccc1)C(C)C` (stereo not given), the GI50 with A498 was 21.6 µM (inactive); in the test on A549, 31.3 µM (inactive); in the test with BT-549, 18.5 µM (inactive); in the test with CCRF-CEM, 21.7 µM (inactive); in the test on EKVX it was 35.9 µM (inactive); in the test with HCT-116, 16.2 µM (inactive). Further, the GI50 is 21.2 µM with HCT-15; 17.7 µM (inactive) with HT-29; 22.9 µM (inactive) with Hs-578T; 19.6 µM (inactive) with LOX IMVI; 18.7 µM (inactive) in the test on M14; 16.1 µM (inactive) in the test on MCF7. The GI50 in the test with OVCAR-3 is 17.3 µM (inactive); with OVCAR-4, 22.1 µM (inactive); in the test with OVCAR-5, 18.2 µM (inactive); in the test on RPMI-8226 it was 20.4 µM (inactive); in the test with SF-268, 21.3 µM (inactive); in the test on SF-295 it was 19.5 µM (inactive). The GI50 in the test on SK-MEL-5 is 16.2 µM (inactive); with SR, 11.1 µM (inactive).
Turning to `NC(=O)c1ccc(S(=O)(=NS(=O)(=O)c2ccccc2)c2ccc(C(N)=O)cc2)cc1`, the GI50 in the test with A498, in the test on A549, with BT-549, with CCRF-CEM, in the test with EKVX and with HCT-116 was > 100 µM (inactive) in each case. Also, the GI50 in the test with HCT-15 was > 100 µM; with HT-29, > 100 µM (inactive); in the test with Hs-578T it was > 100 µM (inactive); in the test on LOX IMVI, > 100 µM (inactive); in the test with M14, > 100 µM (inactive); with MCF7, > 100 µM (inactive). The GI50 with OVCAR-3, with OVCAR-4, in the test on OVCAR-5, in the test on RPMI-8226, in the test with SF-268 and with SF-295 was > 100 µM (inactive) throughout. The GI50 in the test with SK-MEL-5 and with SR was > 100 µM (inactive) each time.
Turning to `O=C(O)CN1CCNCCN(CC(=O)O)CCNCC1`, the GI50 with A498 was 50 µM (inactive); in the test with A549, 5.57 µM (inactive); in the test with BT-549 it was > 85.5 µM (inactive); in the test on CCRF-CEM, 4.8 µM (inactive); in the test with EKVX, > 60.3 µM (inactive); in the test with HCT-116, 4.75 µM (inactive). Moreover, the GI50 with HCT-15 is 9.29 µM; in the test on HT-29 it was 13.5 µM (inactive); with Hs-578T it was > 24.1 µM (inactive); with LOX IMVI it was 79.4 µM (inactive); in the test on M14, > 100 µM (inactive); with MCF7, 28.2 µM (inactive). The GI50 with OVCAR-3 is > 100 µM (inactive); in the test on OVCAR-4, > 100 µM (inactive); with OVCAR-5 it was > 85.1 µM (inactive); in the test with RPMI-8226, 6.31 µM (inactive); in the test on SF-268, > 100 µM (inactive); in the test on SF-295, > 87.7 µM (inactive). In addition, the GI50 with SK-MEL-5 is 5.28 µM (inactive); in the test on SR, 5.14 µM (inactive).
Consider `CCC1(OC(=O)CNC)C(=O)OCc2c1cc1n(c2=O)Cc2cc3ccccc3nc2-1` (stereo not given), for which the GI50 is < 0.0179 µM (active) in the test on A498; < 0.01 µM (active) with A549; 0.0594 µM (active) with BT-549; < 0.01 µM (active) in the test on CCRF-CEM; 0.127 µM (active) in the test on EKVX; 0.015 µM (active) in the test with HCT-116. The GI50 with HCT-15 is 0.0942 µM; in the test with HT-29, 0.0335 µM (active); in the test on Hs-578T, 0.403 µM (active); with LOX IMVI it was < 0.01 µM (active); in the test with M14, < 0.0105 µM (active); in the test on MCF7 it was < 0.01 µM (active). Further, the 50% growth inhibitory concentration (GI50) is 0.0713 µM (active) in the test on OVCAR-3; 0.0977 µM (active) in the test on OVCAR-4; 0.0247 µM (active) with OVCAR-5; < 0.0137 µM (active) in the test with RPMI-8226; < 0.01 µM (active) in the test with SF-268; < 0.01 µM (active) with SF-295. Further, the 50% growth inhibitory concentration (GI50) is < 0.0125 µM (active) in the test with SK-MEL-5 and < 0.01 µM (active) in the test with SR.
For the compound `Cc1cc2c(Br)cc(Br)c(O)c2nc1C(=O)c1ccccc1`, the GI50 with A498 was 20.7 µM (inactive); with A549 it was 14.4 µM (inactive); in the test on BT-549 it was > 100 µM (inactive); in the test on CCRF-CEM it was 8.11 µM (inactive); with EKVX, > 51.6 µM (inactive); in the test with HCT-116 it was 12.4 µM (inactive). Further, the GI50 with HCT-15 is 14 µM; in the test with HT-29 it was 28.4 µM (inactive); in the test with Hs-578T it was > 100 µM (inactive); in the test on LOX IMVI, 10.4 µM (inactive); in the test with M14, > 43.3 µM (inactive); with MCF7, 10.1 µM (inactive). Moreover, the GI50 is 20.3 µM (inactive) with OVCAR-3; 29.3 µM (inactive) in the test on OVCAR-4; > 45.1 µM (inactive) in the test with OVCAR-5; 22.4 µM (inactive) in the test with RPMI-8226; 28.3 µM (inactive) with SF-268; 10.6 µM (inactive) in the test on SF-295. In addition, the results for the GI50 with SK-MEL-5 and with SR were 14.5 µM (inactive) and 14.9 µM (inactive), respectively.
Consider `CC1=NN(c2nc(N)nc(CN3CCOCC3)n2)C(C)(C)C1`, for which the GI50 was > 100 µM (inactive) in the test with A498; > 100 µM (inactive) in the test with A549; > 100 µM (inactive) in the test with BT-549; 30.1 µM (inactive) in the test on CCRF-CEM; 31.8 µM (inactive) with EKVX; > 100 µM (inactive) in the test with HCT-116. Further, the GI50 with HCT-15 is > 100 µM; in the test on HT-29, > 100 µM (inactive); in the test on Hs-578T it was > 100 µM (inactive); in the test with LOX IMVI, 14.9 µM (inactive); in the test on M14, > 100 µM (inactive); with MCF7, > 100 µM (inactive). For the same compound, the GI50 was > 100 µM (inactive) in the test on OVCAR-3; 20.5 µM (inactive) in the test with OVCAR-4; > 100 µM (inactive) in the test on OVCAR-5; > 100 µM (inactive) in the test with RPMI-8226; > 100 µM (inactive) in the test with SF-268; > 100 µM (inactive) in the test with SF-295. The GI50 in the test with SK-MEL-5 is 73.3 µM (inactive); with SR, 30.1 µM (inactive).
Turning to `CC(O)C1(CNc2cc(Cl)nc(N)n2)CCCC1` (stereo not given), the GI50 in the test with A498, in the test on A549, in the test with BT-549, in the test on CCRF-CEM, in the test on EKVX and with HCT-116 was > 100 µM (inactive) each time. In addition, the GI50 was > 100 µM with HCT-15; > 100 µM (inactive) with HT-29; > 100 µM (inactive) in the test on Hs-578T; > 100 µM (inactive) with LOX IMVI; > 100 µM (inactive) with M14; > 100 µM (inactive) in the test with MCF7. The GI50 with OVCAR-3 was > 100 µM (inactive); in the test with OVCAR-4 it was 75.3 µM (inactive); in the test on OVCAR-5 it was > 100 µM (inactive); in the test on RPMI-8226 it was > 100 µM (inactive); in the test with SF-268 it was > 100 µM (inactive); in the test on SF-295, > 100 µM (inactive). In addition, the GI50 with SK-MEL-5 and with SR was > 100 µM (inactive) throughout.

The record behind these values is ChEMBL document CHEMBL1201862, “PubChem BioAssay data set” (2004).
